Measured values published in PMC5290327, “SC83288 is a clinical development candidate for the treatment of severe malaria” (Nature Communications, 2017).
Where two headings read alike, the source gives them in different places.

Columns and labels:
[1] = Ames test; settings: 50 μM
[2] = Permeability assay; assay type: in vitro ADME; settings: human; CACO 2 cells, 10 μM, apical side, 2 h
Protocol: The study was conducted by Cyprotex (Macclesfield, United Kingdom). CACO 2 cells (Sigma-Aldrich, catalogue: 86010202) were seeded on Millipore Millicell plates and formed a confluent monolayer over 20 days before the experiment. On day 20, the tested compounds at a final concentration of 10 μM were added to the apical side of the membrane. The transport of the compound across the monolayer was monitored over a 2 h period by liquid chromatography (LC)–MS/MS quantification. The permeability coefficient (Papp) was calculated from the following equation: [drawing 1] , where dQ/dt is the rate of permeation of the drug across the cells, C0 the donor compartment concentration at time zero and A the area of the cell monolayer. C0 was obtained from analysis of the dosing solution at the start of the experiment.

[3] = target: T1, NK2 (h) (Homo sapiens, UniProt P21452); test: Radioligand binding
T1 construct: Cerep

[4] = target: T2, m (MOP) (h) (Homo sapiens, UniProt P35372); test: Radioligand binding
T2 construct: Cerep

[5] = system: BZD (central); test: Radioligand binding
[6] = target: T3, V1a (h) (Homo sapiens, UniProt P37288); test: Radioligand binding
T3 construct: Cerep (contract screening)

[7] = target: T4, D2S (h) (Homo sapiens, UniProt P14416); test: Radioligand binding
T4 construct: Cerep

[8] = system: P. falciparum strain Dd2; test: Growth inhibition assay, asexual blood stages; assay type: cell-based, Plasmodium falciparum; settings: for IC90: Plasmodium falciparum, DD2, 72 h; for absolute Hill coefficient: in vitro growth inhibition curves
[9] = system: 54 human transporters and receptors; test: In vitro safety pharmacology profiling, whole panel; assay type: binding
Protocol: The study was carried out by Cerep (Celle l'Evescault, France). An in vitro pharmacological profiling panel was designed to detect potential high-risk clinical adverse drug reactions. The panel comprised of 54 targets.
The specific ligand binding to the receptors was defined as the difference between the total binding and the non-specific binding determined in the presence of an excess of unlabelled ligand. Results were expressed as a per cent of control specific binding and as a per cent inhibition of control specific obtained in the presence of the test compounds. Results showing an inhibition (or stimulation) >50% were considered to represent significant effects of the test compounds. […] The IC50 values were determined by non-linear regression analysis of the competition curves generated with mean replicate values using Hill equation curve fitting. The inhibition constants (Ki) were calculated using the Cheng Prusoff equation.

[10] = target: T5, AT1 (h) (Homo sapiens, UniProt P30556); test: Radioligand binding
T5 construct: Cerep (contract study)

[11] = target: T6, 5-HT1A (h) (Homo sapiens, UniProt P08908); test: Radioligand binding
T6 construct: Cerep

[12] = target: T7, A1 (h) (Homo sapiens, UniProt P30542); test: Radioligand binding
T7 construct: Cerep (contract study)

[13] = In vitro micronucleus assay; settings: 60 μM
[14] = target: CYP2A6 (Homo sapiens, UniProt P11509); test: CYP inhibition, human liver microsomes; settings: CYP2A6, coumarin to 7-OH-coumarin, 10 µM
[15] = target: T8, H2 (h) (Homo sapiens, UniProt P25021); test: Radioligand binding
T8 construct: Cerep

[16] = target: T9, GAL2 (h) (Homo sapiens, UniProt O43603); test: Radioligand binding
T9 construct: Cerep

[17] = system: P. falciparum strains 3D7 and W2; test: Efficacy in the Pf/NSG mouse model; assay type: in vivo, Plasmodium falciparum; settings: for reduction of parasite burden within the first 24 h: 10.0 mg kg^−1 per day i.p.; for recrudescence of the infection: 3 weeks survey, exception 3D7-infected mice treated with 2.5 mg kg^−1 of SC81458; for In vivo PCT99.9%: i.p. once per day 4 days
[18] = target: T10, d2 (DOP) (h) (Homo sapiens, UniProt P41143); test: Radioligand binding
T10 construct: Cerep

[19] = system: cytoplasmic free Ca2+ in P. falciparum HB3 trophozoites; test: Ca2+ live imaging, Fluo-4; settings: SC compounds 10 and 20 μM; CPA 10 μM
[20] = target: CYP1A2 (Homo sapiens, UniProt P05177); test: CYP inhibition, human liver microsomes; settings: CYP1A2, melatonin to 6-OH-melatonin, 10 µM
[21] = PK study; assay type: in vivo, mouse; settings: for half-life: mouse; for MRT last: read-out: MRT0-t; for time of peak plasma concentration (Cmax): single i.p. dose in mice
Protocol: On the treatment day, all animals were weighed and the dosing volume was calculated for each individual animal according to its actual body weight. All animal were dosed once. Blood samples were taken at different time points and plasma was collected after centrifugation (10,000g, 10 min, 4 °C). Plasma samples were analysed by LC–MS/MS. […] All relevant observations were recorded. The PK studies in cynomolgus monkeys and beagle dogs were performed by the Laboratory of Pharmacology and Toxicology (LPT), Hamburg, and PK and toxicity studies in mice and rats were performed by the 4SC Discovery GmbH, Munich. PK parameters were obtained by a non-compartment analysis, using Kinetica 4.1 (Thermo Scientific).

[22] = target: T11, A3 (h) (Homo sapiens, UniProt P0DMS8); test: Radioligand binding
T11 construct: Cerep (contract study)

[23] = target: T12, norepinephrine transporter (h) (Homo sapiens, UniProt P23975); test: Radioligand binding
T12 construct: Cerep (contract screening)

[24] = target: T13, D1 (h) (Homo sapiens, UniProt P21728); test: Radioligand binding
T13 construct: Cerep

[25] = target: T14, Y1 (h) (Homo sapiens, UniProt P25929); test: Radioligand binding
T14 construct: Cerep

[26] = system: GABA (non-selective); test: Radioligand binding
[27] = plasma, ip, mouse i.p. 20 mg kg^−1
[28] = plasma, iv, mouse i.v. 2 mg kg^−1

T11 sequence (P0DMS8 whole entry): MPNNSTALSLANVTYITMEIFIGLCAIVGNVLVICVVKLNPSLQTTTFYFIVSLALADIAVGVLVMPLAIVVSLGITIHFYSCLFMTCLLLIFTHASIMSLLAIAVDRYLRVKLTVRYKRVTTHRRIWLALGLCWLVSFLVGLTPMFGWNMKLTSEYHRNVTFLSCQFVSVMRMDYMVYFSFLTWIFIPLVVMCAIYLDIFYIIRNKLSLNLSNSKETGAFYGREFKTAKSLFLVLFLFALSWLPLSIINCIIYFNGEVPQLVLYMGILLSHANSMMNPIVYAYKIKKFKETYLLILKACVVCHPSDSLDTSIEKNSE
T13 sequence (P21728 whole entry): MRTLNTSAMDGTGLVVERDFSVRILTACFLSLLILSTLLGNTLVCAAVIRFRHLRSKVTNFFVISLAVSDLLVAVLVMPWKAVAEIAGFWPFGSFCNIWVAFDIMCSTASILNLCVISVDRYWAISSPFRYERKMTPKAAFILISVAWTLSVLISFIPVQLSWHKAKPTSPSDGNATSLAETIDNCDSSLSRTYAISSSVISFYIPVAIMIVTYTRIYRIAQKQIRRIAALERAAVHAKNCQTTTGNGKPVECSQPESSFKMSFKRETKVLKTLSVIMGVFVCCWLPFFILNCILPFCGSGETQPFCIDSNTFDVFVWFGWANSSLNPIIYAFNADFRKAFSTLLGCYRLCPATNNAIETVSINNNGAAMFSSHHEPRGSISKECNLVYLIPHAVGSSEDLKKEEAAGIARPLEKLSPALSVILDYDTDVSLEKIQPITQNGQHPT
T12 sequence (P23975 whole entry): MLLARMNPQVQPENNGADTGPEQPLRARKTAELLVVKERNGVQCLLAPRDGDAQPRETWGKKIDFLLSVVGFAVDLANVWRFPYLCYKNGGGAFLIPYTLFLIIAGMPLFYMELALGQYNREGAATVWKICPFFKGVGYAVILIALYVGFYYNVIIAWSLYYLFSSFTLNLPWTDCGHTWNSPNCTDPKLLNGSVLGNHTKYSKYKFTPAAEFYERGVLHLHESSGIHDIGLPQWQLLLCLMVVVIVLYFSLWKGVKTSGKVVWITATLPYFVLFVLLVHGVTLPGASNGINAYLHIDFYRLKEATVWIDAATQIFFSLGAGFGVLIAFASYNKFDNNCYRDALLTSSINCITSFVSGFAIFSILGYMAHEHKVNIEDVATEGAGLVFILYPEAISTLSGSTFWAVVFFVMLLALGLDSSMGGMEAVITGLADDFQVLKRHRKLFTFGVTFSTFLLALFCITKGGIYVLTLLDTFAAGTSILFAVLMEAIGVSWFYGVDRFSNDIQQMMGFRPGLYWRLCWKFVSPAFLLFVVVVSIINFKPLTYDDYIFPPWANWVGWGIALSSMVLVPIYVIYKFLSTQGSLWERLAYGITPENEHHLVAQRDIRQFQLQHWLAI
T10 sequence (P41143 whole entry): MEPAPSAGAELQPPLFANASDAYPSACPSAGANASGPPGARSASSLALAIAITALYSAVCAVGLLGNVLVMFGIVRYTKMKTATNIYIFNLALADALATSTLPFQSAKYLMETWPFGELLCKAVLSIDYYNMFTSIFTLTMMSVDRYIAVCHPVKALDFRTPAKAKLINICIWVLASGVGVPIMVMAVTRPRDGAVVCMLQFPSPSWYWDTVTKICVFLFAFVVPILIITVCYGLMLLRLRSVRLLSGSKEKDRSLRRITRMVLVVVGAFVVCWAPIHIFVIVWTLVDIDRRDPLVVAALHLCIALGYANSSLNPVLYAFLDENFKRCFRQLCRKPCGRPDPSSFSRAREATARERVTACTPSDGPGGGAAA
T3 sequence (P37288 whole entry): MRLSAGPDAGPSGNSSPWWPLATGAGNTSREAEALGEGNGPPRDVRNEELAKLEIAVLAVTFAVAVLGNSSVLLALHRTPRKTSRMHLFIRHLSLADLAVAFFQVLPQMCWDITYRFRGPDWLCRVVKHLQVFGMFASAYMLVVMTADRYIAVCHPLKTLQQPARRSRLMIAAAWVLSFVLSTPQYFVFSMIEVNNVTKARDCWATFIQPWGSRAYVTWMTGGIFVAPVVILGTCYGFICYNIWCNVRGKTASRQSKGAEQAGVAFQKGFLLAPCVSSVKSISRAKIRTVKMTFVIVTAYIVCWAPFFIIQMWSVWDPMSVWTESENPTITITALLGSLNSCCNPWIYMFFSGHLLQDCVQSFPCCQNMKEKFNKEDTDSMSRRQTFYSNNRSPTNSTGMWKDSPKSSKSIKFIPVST
Chain of CYP1A2 (P05177 whole entry): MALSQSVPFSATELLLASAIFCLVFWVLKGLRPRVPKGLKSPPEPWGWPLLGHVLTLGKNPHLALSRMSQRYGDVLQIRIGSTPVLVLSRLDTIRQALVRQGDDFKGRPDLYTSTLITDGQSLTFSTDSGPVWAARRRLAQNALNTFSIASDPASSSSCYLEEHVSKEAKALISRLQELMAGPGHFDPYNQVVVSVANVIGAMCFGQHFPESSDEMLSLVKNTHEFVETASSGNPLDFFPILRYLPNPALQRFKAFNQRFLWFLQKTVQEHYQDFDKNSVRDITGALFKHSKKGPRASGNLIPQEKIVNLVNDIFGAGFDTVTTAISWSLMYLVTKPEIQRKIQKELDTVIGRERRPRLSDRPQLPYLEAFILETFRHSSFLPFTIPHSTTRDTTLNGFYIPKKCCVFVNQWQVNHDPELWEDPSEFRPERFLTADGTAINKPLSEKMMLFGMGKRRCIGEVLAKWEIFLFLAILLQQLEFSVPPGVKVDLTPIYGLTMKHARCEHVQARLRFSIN
T4 sequence (P14416 1-414 isoform P14416-2): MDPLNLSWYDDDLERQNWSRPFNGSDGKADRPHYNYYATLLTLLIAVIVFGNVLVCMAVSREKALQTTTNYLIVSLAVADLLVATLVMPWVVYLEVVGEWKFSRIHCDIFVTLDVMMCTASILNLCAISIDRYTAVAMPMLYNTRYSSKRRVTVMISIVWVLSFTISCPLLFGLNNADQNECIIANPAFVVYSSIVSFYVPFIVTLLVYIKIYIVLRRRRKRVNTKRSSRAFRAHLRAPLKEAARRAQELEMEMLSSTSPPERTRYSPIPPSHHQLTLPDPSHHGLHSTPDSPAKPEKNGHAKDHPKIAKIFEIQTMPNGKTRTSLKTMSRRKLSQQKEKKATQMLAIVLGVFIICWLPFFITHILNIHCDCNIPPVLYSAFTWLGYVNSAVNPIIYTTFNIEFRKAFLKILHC
T5 sequence (P30556 whole entry): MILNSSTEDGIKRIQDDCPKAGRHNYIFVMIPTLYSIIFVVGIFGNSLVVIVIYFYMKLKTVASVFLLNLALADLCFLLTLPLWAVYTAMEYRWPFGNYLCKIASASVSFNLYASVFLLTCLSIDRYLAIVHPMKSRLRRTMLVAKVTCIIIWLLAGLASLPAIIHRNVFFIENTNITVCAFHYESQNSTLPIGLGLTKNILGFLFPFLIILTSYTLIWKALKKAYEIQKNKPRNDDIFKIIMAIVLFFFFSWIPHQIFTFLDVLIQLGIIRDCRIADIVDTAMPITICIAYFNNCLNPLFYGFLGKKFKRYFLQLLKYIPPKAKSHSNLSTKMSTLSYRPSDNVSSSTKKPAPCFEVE
Chain of CYP2A6 (P11509 whole entry): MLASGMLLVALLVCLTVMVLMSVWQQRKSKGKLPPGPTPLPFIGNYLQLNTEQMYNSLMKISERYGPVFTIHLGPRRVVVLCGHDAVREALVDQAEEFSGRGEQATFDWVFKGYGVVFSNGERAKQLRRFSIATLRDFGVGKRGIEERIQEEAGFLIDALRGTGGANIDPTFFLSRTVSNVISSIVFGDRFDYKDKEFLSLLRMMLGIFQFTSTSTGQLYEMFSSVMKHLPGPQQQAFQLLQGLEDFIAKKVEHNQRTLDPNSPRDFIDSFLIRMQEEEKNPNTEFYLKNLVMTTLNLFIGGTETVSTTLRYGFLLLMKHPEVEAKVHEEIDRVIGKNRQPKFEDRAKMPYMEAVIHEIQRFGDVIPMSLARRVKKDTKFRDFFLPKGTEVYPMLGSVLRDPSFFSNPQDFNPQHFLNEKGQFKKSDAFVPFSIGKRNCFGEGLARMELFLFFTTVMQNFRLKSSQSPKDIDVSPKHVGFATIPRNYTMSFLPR
T9 sequence (O43603 whole entry): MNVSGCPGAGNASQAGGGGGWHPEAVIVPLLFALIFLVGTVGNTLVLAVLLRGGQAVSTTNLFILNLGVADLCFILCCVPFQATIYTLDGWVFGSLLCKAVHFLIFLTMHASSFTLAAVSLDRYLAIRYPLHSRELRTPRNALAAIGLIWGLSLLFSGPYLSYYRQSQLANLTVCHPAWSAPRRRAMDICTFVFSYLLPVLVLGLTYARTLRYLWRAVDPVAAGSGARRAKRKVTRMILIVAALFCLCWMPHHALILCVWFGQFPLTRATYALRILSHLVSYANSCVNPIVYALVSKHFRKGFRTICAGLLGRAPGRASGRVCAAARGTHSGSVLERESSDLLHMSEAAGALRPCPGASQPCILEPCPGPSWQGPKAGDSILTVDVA
T8 sequence (P25021 whole entry): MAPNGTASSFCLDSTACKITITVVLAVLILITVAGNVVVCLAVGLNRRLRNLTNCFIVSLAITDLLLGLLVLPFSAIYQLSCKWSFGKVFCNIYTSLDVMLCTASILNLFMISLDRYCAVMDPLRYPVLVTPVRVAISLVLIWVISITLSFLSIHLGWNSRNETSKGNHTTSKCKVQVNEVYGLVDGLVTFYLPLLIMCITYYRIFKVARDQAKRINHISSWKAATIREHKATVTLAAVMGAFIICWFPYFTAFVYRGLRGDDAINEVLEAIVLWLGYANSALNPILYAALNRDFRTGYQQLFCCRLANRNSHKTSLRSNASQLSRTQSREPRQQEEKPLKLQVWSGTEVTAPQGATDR

CCCCN1CCN(C(=N)c2cccc(NC(=O)Nc3ccc(S(=O)(=O)NCc4ccc(S(N)(=O)=O)cc4)cc3)c2)CC1 [SC81458, 4-(3-(3-((4-butylpiperazin-1-yl)(imino)methyl)phenyl)ureido)-N-(4-sulfamoylbenzyl) benzenesulfonamide]
genotoxicity in a reverse Ames test [1]: no signs of genotoxicity
Papp at 2 h, 10 μM [2]: 0.76 ×10⁻⁶ cm/s
Inhibition of control specific binding [3]: 51%
Inhibition of control specific binding [4]: 24%
Inhibition of control specific binding [5]: 16%
Inhibition of control specific binding [6]: -1%
Inhibition of control specific binding [7]: 15%
IC90 [8]: 18 nM
absolute Hill coefficient [8]: 2.6±0.3
binding potential to 54 human transporters and receptors [9]: low to moderate
Inhibition of control specific binding [10]: 11%
Inhibition of control specific binding [11]: 2%
Inhibition of control specific binding [12]: 7%
mutagenic or clastogenic activity, in vitro micronucleus assay [13]: no signs
Remaining enzyme activity [14]: 98%
Inhibition of control specific binding [15]: 26%
Inhibition of control specific binding [16]: -15%
reduction of parasite burden within the first 24 h [17]: ~97%
recrudescence of the infection [17]: no recrudescence
In vivo PCT99.9% ([17]; humanized NSG mouse): <48 h
Inhibition of control specific binding [18]: 10%
effect on cytoplasmic free Ca^2+ [19]: did not affect
Remaining enzyme activity [20]: 95%
CL ([21]; mouse i.p. 20 mg kg^−1): 4,607 ml h^−1 kg^−1
half-life ([21]; plasma, ip, 20 mg/kg, mouse i.p. 20 mg kg^−1, read-out: t1/2 effective): 52 min
half-life ([21]; plasma, ip, 20 mg/kg, mouse i.p. 20 mg kg^−1, read-out: t1/2 terminal): 860 min
AUC(0-inf) [21, 27]: 4340 ng·h/mL
Cmax [21, 27]: 7380 ng/mL
Tmax [21, 27]: 30 min
bioavailability ([21]; plasma, ip, mouse i.p. 20 mg kg^−1, read-out: F, relative bioavailability compared to i.v.): 62%
MRT last [21, 27]: 74.4 min
time of peak plasma concentration (Cmax) [21]: ≤ 30 min
Inhibition of control specific binding [22]: 0%
Inhibition of control specific binding [23]: 73%
Inhibition of control specific binding [24]: 51%
Inhibition of control specific binding [25]: 0%
Inhibition of control specific binding [26]: 14%

COC(=O)N1CCN(C(=N)c2cccc(NC(=O)Nc3ccc(S(=O)(=O)NCc4ccc(S(N)(=O)=O)cc4)cc3)c2)CC1 [SC83288, methyl 4-(imino(3-(3-(4-(N-(4-sulfamoylbenzyl)sulfamoyl)phenyl)ureido)phenyl)methyl) piperazine-1-carboxylate]
genotoxicity in a reverse Ames test [1]: no signs of genotoxicity
Papp at 2 h, 10 μM [2]: 0.42 ×10⁻⁶ cm/s
Inhibition of control specific binding [3]: 20%
Inhibition of control specific binding [4]: 25%
Inhibition of control specific binding [5]: 70%
Inhibition of control specific binding [6]: 11%
Inhibition of control specific binding [7]: 1%
IC90 [8]: 8 nM
absolute Hill coefficient [8]: 2.6±0.3
binding potential to 54 human transporters and receptors [9]: low to moderate
Inhibition of control specific binding [10]: 6%
Inhibition of control specific binding [11]: 15%
Inhibition of control specific binding [12]: 8%
mutagenic or clastogenic activity, in vitro micronucleus assay [13]: no signs
Remaining enzyme activity [14]: 101%
Inhibition of control specific binding [15]: 0%
Inhibition of control specific binding [16]: 4%
reduction of parasite burden within the first 24 h [17]: ~93%
recrudescence of the infection [17]: no recrudescence
free-minimal parasiticidal concentration (MPC) ([17]; NSG mice): 200 nM
ED50 (free plasma concentration) ([17]; NSG mice, 2 days after commencement of treatment, sigmoidal model fit): 45 nM
ED90 (free plasma concentration) ([17]; NSG mice, sigmoidal model fit): 80 nM
reduction of parasitemia over a replicative cycle of 48 h ([17]; humanized NSG mouse): 99.9%
In vivo PCT99.9% ([17]; humanized NSG mouse): 48 h
In vivo logPRR ([17]; humanized NSG mouse, no distinction between strains): 3.0
Inhibition of control specific binding [18]: 1%
effect on cytoplasmic free Ca^2+ [19]: did not affect
Remaining enzyme activity [20]: 97%
VC ([21]; mouse i.v. 2 mg kg^−1): 0.549 L/kg
half-life ([21]; plasma, ip, 10 mg/kg, mice, i.p. 2.5, 5.0 and 10.0 mg kg^−1, read-out: effective half time t1/2): 29 to 55 min
half-life ([21]; plasma, iv, 2 mg/kg, mouse i.v. 2 mg kg^−1, read-out: t1/2 effective): 12 min
half-life ([21]; plasma, iv, 2 mg/kg, mouse i.v. 2 mg kg^−1, read-out: t1/2 initial): 9 min
half-life ([21]; plasma, iv, 2 mg/kg, mouse i.v. 2 mg kg^−1, read-out: t1/2 terminal): 43 min
AUC(0-inf) ([21]; plasma, ip, mouse i.p. 10 mg kg^−1): 2020 ng·h/mL
AUC(0-inf) [21, 28]: 891 ng·h/mL
C0 [21, 28]: 3640 ng/mL
Cmax [21, 28]: 2560 ng/mL
Tmax [21, 28]: 5 min
clearance [21, 28]: 37.4 mL/min/kg
MRT last [21, 28]: 16.8 min
time of peak plasma concentration (Cmax) [21]: ≤ 30 min
Inhibition of control specific binding [22]: 0%
Inhibition of control specific binding [23]: 59%
Inhibition of control specific binding [24]: 79%
Inhibition of control specific binding [25]: 0%
Inhibition of control specific binding [26]: 6%
